Values after ≈ are worked out from the molar mass of the structure shown. Like-named read-outs stand apart in the source and are kept apart here.
Key:
SARS-CoV-2 [1] = test system: SARS-CoV-2; design: method as in PMID 32916297; settings: in vitro anti-SARS-CoV-2; cited from earlier work
SARS-CoV-2 [2] = settings: Call-3 cells, dose-dependent manner; cited from earlier work
[3] = rodents; cited from earlier work
[4] = test system: SARS-CoV-2 in Calu-3 cells; design: method as in PMID 34755538; settings: cited from earlier work
SARS-CoV-2 [5] = test system: SARS-CoV-2; design: method as in PMID 35609344; settings: SARS-CoV-2 infected mice; cited from earlier work
seasonal influenza A = settings: Call-3 cells, dose-dependent manner; cited from earlier work
[6] = Pharmacokinetic study after daily oral pyronaridine/artesunate in hamsters (noncompartmental analysis of observed blood, lung and trachea concentrations); design: species or system golden hamsters; settings: for tolerability of the doses (no unscheduled deaths): 180/60 and 360/120 mg/kg pyronaridine/artesunate oral once a day for 3 days
Procedure: One hundred eight male golden hamsters were obtained from Janvier Lab. (Le Genest-Saint-Isle, France). All hamsters were maintained on a 12-h dark–light cycle at a temperature of 23 ± 3 °C and relative humidity of 55 ± 15%. This study was conducted according to the Guidelines for Ethical Conduct in the Care and Use of Animals and the rules of Good Laboratory Practice and was approved by the Institutional Animal Care and Use Committee (IACUC, protocol number SP2021-14) at Shin Poong Pharm. Co., Ltd. (Seoul, Republic of Korea).
The hamsters (102.01 ± 5.72 g) were divided into two groups: a low-dose group (n = 60) and a high-dose group (n = 48). […] Blood samples (0.5 mL) were drawn from the jugular vein into heparinized tubes at the following times: 0 (predose), 0.08, 0.25, 0.5, 0.75, 1, 2, 4, 8, 12, 24, 47, 48.08, 48.25, 48.5, 48.75, 49, 50, 52, 56, 60, and 72 h during oral administration for 3 days. The blood sampling was conducted 1–3 times per hamster within 72 h, and the tissues were collected after the last blood sampling. The number of animals was four per blood and tissue sampling time point, respectively (each n = 4). The lung and trachea tissues were immediately obtained after sacrificing hamsters, washed in normal saline, and dried with filter papers. The lung and trachea sampling times were as follows: 0.08, 0.25, 0.5, 0.75, 1, 4, 8, 24, 48.08, 48.25, 48.75, 52, and 72 h. Tissues were individually weighed and homogenized with water (lung or trachea tissue: water = 1:4 w/v). The lung and trachea tissue homogenate were stored at −70 °C until sample analysis. For pyronaridine quantification, whole blood samples were stored at −70 °C until sample analysis.
Liquid chromatography was conducted on the Agilent 1290 Infinity II LC System (Agilent Technologies Inc., Santa Clara, CA, USA) coupled to a 6490 Triple Quad Mass Spectrometer (Agilent Technologies Inc., Santa Clara, CA, USA). A Synergi Max-RP column (2.0 × 75 mm, 4 μm particle size, Phenomenex, Torrance, CA, USA) was used at a temperature of 25 °C. The mobile phase consisted of 0.04% TFA (mobile phase A) and methanol:acetonitrile (3:1 v/v, mobile phase B) with a flow rate of 0.2 mL/min. A gradient elution was used for the chromatographic separation of pyronaridine as follows: 0.0–1.5 min, 10% B; 1.5–1.6 min, 10–60% B; 1.6–4.0 min, 60% B; 4.0–4.1 min, 60–10% B; […], 10% B. The multiple reaction monitoring (MRM) mode was set with a positive electrospray ionization mode. The MRM transitions of pyronaridine and amodiaquine (internal standard, IS) were 518.2 > 447.1 and 356.2 > 283.0. The collision energy of pyronaridine and amodiaquine were 17 and 21 eV, and the cell accelerator voltage was 5 V for both compounds.
Chromatographic separation was performed with an Inertsil ODS column (2.1 × 100 mm, 5 µm particle size, GL Sciences, Tokyo, Japan) column at a temperature of 25 ℃. The mobile phase consisted of 10 mM ammonium acetate (mobile phase A) and acetonitrile (mobile phase B) with an isocratic elution (A:B = 10:90, v/v), and a flow rate of 0.2 mL/min. The mass spectrometer was operated on electrospray ionization positive mode.
Fifty μL of hamster blood, lung, or trachea tissue homogenates were added with 10 μL of the IS solution (10 μg/mL of amodiaquine). Added to the mixed sample were 125 μL of 0.5 M sodium phosphate tribasic dodecahydrate buffer (pH adjusted to 10.3 with 85% ortho-phosphoric acid) and 500 μL of ether, vortexed for 5 min and centrifuged at 21,130× g for 5 min. Then, 300 μL of supernatant were transferred to new microtubes and dried under nitrogen steam at room temperature. The dried residues were reconstituted with 100 μL of mobile phase (0.04% TFA:methanol:acetonitrile = 40:45:15, v/v/v) and vortexed for 5 min. After centrifugation at 21,130× g for 5 min, 5 μL of aliquot were injected into the UPLC-MS/MS system.
Then, 50 μL of hamster plasma, lung, or trachea tissue homogenates were added with 10 μL of the IS solution (5 μg/mL of artemisinin).

[7] = dog, in vivo; cited from earlier work
[8] = cited from earlier work
[9] = test system: SARS-CoV-2 in Vero E6 cells; design: method as in PMID 33075512; settings: cited from earlier work
[10] = rat, in vivo; cited from earlier work
[11] = test system: SARS-CoV-2 in Huh7.5 cells; design: method as in PMID 34755538; settings: cited from earlier work
SARS-CoV-2 in Vero cells = settings: cited from earlier work
SARS-CoV-2 [12] = test system: SARS-CoV-2; design: method as in PMID 34272426; settings: range in different cell types; cited from earlier work
[13] = in vivo; cited from earlier work
SARS-CoV-2 [14] = test system: SARS-CoV-2; design: method as in PMID 32786284; settings: anti-SARS-CoV-2; cited from earlier work
[15] = male, golden, hamster, in vivo, po, 180 mg/kg
[16] = male, golden, hamster, in vivo, po, 360 mg/kg
[17] = fitted, parent-metabolite model

COc1ccc2nc3cc(Cl)ccc3c(Nc3cc(CN4CCCC4)c(O)c(CN4CCCC4)c3)c2n1 [Pyronaridine, Pyronaridine tetraphosphate]
EC50 (SARS-CoV-2 [1]): 0.72 µM | EC90 (SARS-CoV-2 [1]): 0.75 µM | growth and viral replication of SARS-CoV-2 (SARS-CoV-2 [2]): inhibited the growth and viral replication | maximal nonlethal dose [3]: 1500 mg/kg | concentration showing anti-SARS-CoV-2 activity [4]: 8.6 ng/mL | Klung (lung-to-blood partition coefficient) (fitted): 26.06 | Krest (rest of the body-to-blood partition coefficient) (fitted): 5.25 × 10^−7 | Ktrachea (trachea-to-blood partition coefficient) (fitted): 8.67 | ka (first-order absorption rate constant) (fitted): 0.03 h⁻¹ | klt (lung-to-trachea transfer rate constant) (fitted): 0.92 h⁻¹ | ktl (trachea-to-lung transfer rate constant) (fitted): 1.01 h⁻¹ | CL/F (apparent total clearance) (hamster): 0.21 L/h | viral load in the lungs (SARS-CoV-2 [5]): significant inhibition of the viral load in the lungs | growth and viral replication of seasonal influenza A (seasonal influenza A): inhibited the growth and viral replication | tolerability of the doses (no unscheduled deaths) [6]: tolerated | Kp at 3 day ([6]; male, golden, hamster, in vivo, lung-to-blood AUC ratio): 51 | Kp at 1 day ([6]; male, golden, hamster, in vivo, lung-to-blood AUC ratio (=AUClung/AUCblood)): 25.5 | AUC at 1 day [6, 15]: 24100 ng·h/mL | AUC at 3 day [6, 15]: 57100 ng·h/mL | Cmax [6, 15]: 2700 ng/mL | AUC at 1 day [6, 16]: 51000 ng·h/mL | AUC at 3 day [6, 16]: 84900 ng·h/mL | Cmax [6, 16]: 4540 ng/mL | Tmax [6, 16]: 120 to 240 min | Kp at 3 day ([6]; male, golden, hamster, in vivo, trachea-to-blood AUC ratio): 16.6 | Kp at 1 day ([6]; male, golden, hamster, in vivo, trachea-to-blood AUC ratio (=AUCtrachea/AUCblood)): 7.17 | elimination half-life [7]: 60 h | blood-to-plasma ratio [8]: 4.9–17.8 | EC50 [9]: 0.373 µg/mL (≈ 0.72 µM) | elimination half-life [10]: two to four days | concentration showing anti-SARS-CoV-2 activity [11]: 103.6 ng/mL | EC50 (SARS-CoV-2 in Vero cells; after 24 h of culture): 0.5699 µg/mL (≈ 1.1 µM) | EC50 (SARS-CoV-2 in Vero cells; after 48 h of culture): 1.1397 µg/mL (≈ 2.2 µM)

C[C@H]1[C@H](OC(=O)CCC(=O)O)O[C@@H]2O[C@@]3(C)CC[C@H]4[C@H](C)CC[C@@H]1[C@@]24OO3 [Artesunate, artesunate]
EC50 (SARS-CoV-2 [12]): 18.2 to 31.2 µM | growth and viral replication of SARS-CoV-2 (SARS-CoV-2 [2]): inhibited the growth and viral replication | maximal nonlethal dose [3]: 500 mg/kg | elimination half-life [13]: 19.2 to 31.2 min | time to peak concentrations [13]: less than five minutes | time until concentrations decreased below the quantification limit [13]: 2 h | Klung (lung-to-blood partition coefficient) (fitted): 10.33 | Ktrachea (trachea-to-blood partition coefficient) (fitted): 1.48 | ka (first-order absorption rate constant) (fitted): 1.74 h⁻¹ | klt (lung-to-trachea transfer rate constant) (fitted): 0.34 h⁻¹ | ktl (trachea-to-lung transfer rate constant) (fitted): 1.50 h⁻¹ | CL/F (apparent total clearance) (hamster): 2517.70 L/h | growth and viral replication of seasonal influenza A (seasonal influenza A): inhibited the growth and viral replication | tolerability of the doses (no unscheduled deaths) [6]: tolerated | EC50 (SARS-CoV-2 [14]): 13 µM

C[C@H]1[C@@H](O)O[C@@H]2O[C@@]3(C)CC[C@H]4[C@H](C)CC[C@@H]1[C@@]24OO3 [Dihydroartemisinin, dihydroartemisinin]
elimination half-life [13]: 19.2 to 31.2 min | time to peak concentrations [13]: less than five minutes | Klung,m (lung-to-blood partition coefficient) [17]: 0.34 | Krest,m (rest of the body-to-blood partition coefficient) [17]: 1.21 | Ktrachea,m (trachea-to-blood partition coefficient) [17]: 1.08 | klt,m (lung-to-trachea transfer rate constant) [17]: 0.35 h⁻¹ | ktl,m (trachea-to-lung transfer rate constant) [17]: 6.98 h⁻¹ | CLm/F (apparent total clearance of metabolite) (hamster): 10.33 L/h | elimination half-life [7]: 0.39 to 0.66 h | blood-to-plasma ratio / partition coefficient (Kb:p, Kb:p,m) [8]: 0.75 | elimination half-life [10]: 15 to 61.8 min | EC50 (SARS-CoV-2 [14]): 13.3 µM

— publication PMC10058671 (Pharmaceutics, 2023)
